In general, EC50 refers to the concentration at which the effect is half-maximal. For orientation: IC50 means the concentration that inhibits the measured activity by half. A higher IC50 goes with a need for much substance.

Results on 6 compounds are retold here after US5700801A, “Piperazine derivatives, pharmaceutical compositions containing these compounds, their use and processes for preparing them” (Karl Thomae, GmbH, priority 1994, dated 1997).

In assay [1] the test system is thrombocyte aggregation in platelet-rich plasma taken from healthy volunteers. The assay is described as follows: Antithrombotic activity: inhibition of collagen-induced platelet aggregation (Born and Cross) in platelet-rich plasma. Conditions: Homo sapiens, 10 minutes preincubation at 37° C. It is filed as cell-based. How it is done: 2. Antithrombotic activity
The thrombocyte aggregation is measured using the method of Born and Cross (J. Physiol. 170: 397 (1964)) in platelet-rich plasma taken from healthy volunteers. To inhibit coagulation, the blood is mixed with 3.14% sodium citrate in a volume ratio of 1:10.
Collagen-induced aggregation
The pattern of the decrease in optical density of the platelet suspension is photometrically measured and recorded after the addition of the aggregation-triggering substance. The rate of aggregation is determined from the angle of inclination of the density curve. The point on the curve where there is maximum light transmittance is used to calculate the optical density.
The concentration of collagen used is as small as possible but sufficient to produce an irreversible reaction curve. Standard commercial collagen produced by Hormonchemie of Munich is used.
Before the addition of the collagen the plasma is incubated for 10 minutes with the substance at 37° C.
From the measurements obtained the EC50 is determined, which indicates the concentration giving a 50% change in the optical density in terms of the inhibition of aggregation.

The target in assay [2] is human thrombocytes. Nature of the assay: Inhibition of binding of ^3 H-BIBU 52 to human thrombocytes (table: Fibrinogen binding test). As to conditions: ^3 H-BIBU 52 (5 nM), human thrombocytes in plasma, ambient temperature, 20 minutes. How it is done: 1. Inhibition of binding of ^3 H-BIBU 52 to human thrombocytes:
A suspension of human thrombocytes in plasma is incubated with ^3 H-BIBU 52 [=(3S,5S)-5-[(4'-amidino-4-biphenylyl)oxymethyl]-3-[(carboxyl)methyl]-2-pyrrolidinone[3-^3 H-4-biphenylyl]] (see DE-A-4,214,245), which replaces the ^125 I fibrinogen ligand known from the literature, and various concentrations of the substance to be tested. The free and bound ligand is separated by centrifuging and quantified by scintillation counting. The inhibition of ^3 H-BIBU 52 binding by the test substance is determined from the measurements obtained.
In order to do this, donor blood is taken from an anticubital vein and anticoagulated with trisodium citrate (final concentration 13 mM). The blood is centrifuged for 10 minutes at 170×g and the supernatant platelet-rich plasma (PRP) is removed. The remaining blood is vigorously centrifuged once more in order to obtain plasma. The PRP is diluted 1:10 with autologous plasma. 750 μl are incubated with 50 μl of physiological saline solution, 100 μl of test substance solution, 50 μl of ^14 C-sucrose (3,700 Bq) and 50 μl of ^3 H-BIBU 52 (final concentration: 5 nM) at ambient temperature for 20 minutes. In order to measure the non-specific binding, 5 μl of BIBU 52 (final concentration: 30 μM) are used instead of the test substance. The samples are centrifuged for 20 seconds at 10,000×g and the supernatant is poured off. 100 μl thereof are counted in order to determine the amount of free ligand. The pellet is dissolved in 500 μl of 0.2N NaOH, 450 μl are mixed with 2 ml of scintillator and 25 μl of 5N HCl and measured. The residual plasma remaining in the pellet is determined from the ^14 C-content and the bound ligand is determined from the ^3 H-measurement. After the non-specific binding has been deducted, the pellet activity is plotted against the concentration of the test substance and the concentration for a 50% inhibition of binding is determined.

Where a name gives a salt, the structure may show the parent alone. A value given as a limit tells only on which side of the number the result lay.

For `O=C(O)CC[C@H]1CC[C@H](NC(=O)N2CCN(c3ccncc3)CC2)CC1` [5(6), 3-[4-trans-[4-(4-Pyridyl)-piperazin-1-yl]carbonylamino]cyclohexylpropionicacid hydrochloride], the EC50 in assay [1] stood at 0.16 nM. This compound also registered an IC50 in assay [2] of 0.25 nM.

`O=C(CC(=O)N1CCN(c2ccncc2)CC1)N[C@H]1CC[C@H](C(=O)O)CC1` [5(7), [4-trans-[4-(4-Pyridyl)-piperazin-1-yl]malonylamino]cyclohexylcarboxylic a cid hydrochloride] showed a concentration giving a half-maximal response (EC50) in assay [1] of 0.25 nM. In assay [2], this compound had an IC50 of 0.23 nM.

For the compound `O=C(O)CCN1CCC(NC(=O)N2CCN(c3ccncc3)CC2)CC1` [5(8), 3-[4-[4-(4-pyridyl)-piperazin-1-yl]carbonylamino]piperidinopropionic acid dihydrochloride], the EC50 in assay [1] worked out at 0.6 nM. This compound yielded an IC50 in assay [2] of 0.41 nM.

As to `O=C(O)CN1CCC(NC(=O)N2CCN(c3ccncc3)CC2)CC1` [5(9), [4-[4-(4-Pyridyl)-piperazin-1-yl]carbonylamino]piperidino-acetic acid], in assay [1], the EC50 came to 4.4 nM. For the same compound, the concentration for half-maximal inhibition (IC50) in assay [2] was found to be 0.43 nM.

As to `COC(=O)[C@H]1CC[C@H](NC(=O)CCN2CCN(c3ccncc3)CC2)CC1` [Example 1, Methyl[4-trans-[3-[4-(4-pyridyl)-piperazin-1-yl]propionyl]-amino]cyclohexane carboxylate], the EC50 in assay [1] was determined as 3.32 nM. Besides, the IC50 in assay [2] is over 100 nM.

Consider `O=C(CCN1CCN(c2ccncc2)CC1)N[C@H]1CC[C@H](C(=O)O)CC1` [Example 5, [4-trans-[3-[4-(4-Pyridyl)-piperazin-1-yl]propionyl]amino]-cyclohexane-carboxylic acid dihydrochloride], for which, in assay [1], the response was half-maximal at 0.26 nM (EC50). The IC50 in assay [2] came out at 0.21 nM.
